Source: patent publication US20240239759A1, “ISOXAZOLINE COMPOSITIONS AND THEIR USE AS ANTIPARASITICS” (Intervet Inc., priority 2007, published 2024)

Test: Side effects in mice, mite study (Example 2B)
Format: in vivo
Settings: topical 100 ppm, oral or subcutaneous 10 mg/kg, twice 7 days apart
Procedure: The mice were divided into groups of three, and treated topically with 100 ppm body weight, orally with 10 mg/kg body weight, or subcutaneously with 10 mg/kg body weight of Compound 11-1, fipronil (positive control), or nothing (negative control). This treatment was then repeated 7 days later. The infestation rate per mouse (“+”=low infestation rate, “++”=medium infestation rate, “+++”=high infestation rate) was assessed repeatedly on days 1, 6, 9, 13, and 23. Efficacy was defined as the inhibition of the mite infestation rate on treated mice relative to the negative control group.

Cc1cc(C2=NOC(c3cc(Cl)cc(Cl)c3)(C(F)(F)F)C2)ccc1C(=O)NCC(=O)NCC(F)(F)F (racemic) [Compound 11-1, 4-[5-(3,5-dichlorophenyl)-5-trifluoromethyl-4,5-dihydroisoxazol-3-yl]-2-methyl-N-[(2,2,2-trifluoro-ethylcarbamoyl)-methyl]-benzamide]
Side effects: No side effects were observed
